In ChEMBL document CHEMBL1201862, “PubChem BioAssay data set” (2004):
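Dose response: 5 concentrations. Exposure: 48 h. Format: 96-well plates. Endpoint: linear interpolation; highest concentration if not reached. GI50 marks 50% less growth.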 Active and inactive are the calls of the source. Rule as the data show it: active = GI50 up to about 1.1 µM and inactive = higher.

Columns and labels:
Experiment in all cases: growth of human tumour cells (NCI), 48 h
OVCAR-5 = system: OVCAR-5
ACHN = system: ACHN
KM12 = system: KM12
SK-MEL-28 = system: SK-MEL-28
NCI-H460 = system: NCI-H460
SK-OV-3 = system: SK-OV-3
HOP-62 = system: HOP-62
SK-MEL-2 = system: SK-MEL-2
M14 = system: M14
SN12C = system: SN12C
HOP-18 = system: HOP-18
HCC 2998 = system: HCC 2998
IGROV-1 = system: IGROV-1
HOP-92 = system: HOP-92
U-251 = system: U-251
UACC-257 = system: UACC-257
HCT-116 = system: HCT-116
Malme-3M = system: Malme-3M
SNB-75 = system: SNB-75
SR = system: SR
DLD-1 = system: DLD-1
MOLT-4 = system: MOLT-4
UO-31 = system: UO-31
OVCAR-8 = system: OVCAR-8
SF-295 = system: SF-295
A498 = system: A498
TK-10 = system: TK-10
NCI-H23 = system: NCI-H23
A549 = system: A549
COLO 205 = system: COLO 205
786-0 = system: 786-0
SNB-19 = system: SNB-19
HL-60 = system: HL-60
SF-539 = system: SF-539
CCRF-CEM = system: CCRF-CEM
LXFL 529 = system: LXFL 529
KM-20L2 = system: KM-20L2
UACC-62 = system: UACC-62
HT-29 = system: HT-29
SW-620 = system: SW-620
K562 = system: K562
SF-268 = system: SF-268
LOX IMVI = system: LOX IMVI
RXF 631 = system: RXF 631
HCT-15 = system: HCT-15
CAKI-1 = system: CAKI-1
SNB-78 = system: SNB-78
SK-MEL-5 = system: SK-MEL-5
RXF 393 = system: RXF 393
MDA-N = system: MDA-N
DMS-273 = system: DMS-273
M19-MEL = system: M19-MEL
NCI-H522 = system: NCI-H522
DMS-114 = system: DMS-114
T47D = system: T47D
MDA-MB-435 = system: MDA-MB-435
MDA-MB-231 = system: MDA-MB-231
EKVX = system: EKVX
NCI-H226 = system: NCI-H226
OVCAR-3 = system: OVCAR-3
DU-145 = system: DU-145
NCI/ADR-RES = system: NCI/ADR-RES
PC-3 = system: PC-3
RPMI-8226 = system: RPMI-8226
MCF7 = system: MCF7
OVCAR-4 = system: OVCAR-4
BT-549 = system: BT-549
Hs-578T = system: Hs-578T

## C1CCCCc2nc3c(nc2CCC1)c1nc2c(nc1c1nc4c(nc31)CCCCCCCC4)CCCCCCCC2
OVCAR-5
  GI50: > 100000 nM (inactive)
ACHN
  GI50: > 100000 nM (inactive)
KM12
  GI50: > 100000 nM (inactive)
SK-MEL-28
  GI50: > 100000 nM (inactive)
NCI-H460
  GI50: > 100000 nM (inactive)
SK-OV-3
  GI50: > 100000 nM (inactive)
HOP-62
  GI50: 82600 nM (inactive)
SK-MEL-2
  GI50: > 100000 nM (inactive)
M14
  GI50: > 100000 nM (inactive)
SN12C
  GI50: > 100000 nM (inactive)
HOP-18
  GI50: > 100000 nM (inactive)
HCC 2998
  GI50: > 100000 nM (inactive)
IGROV-1
  GI50: > 100000 nM (inactive)
HOP-92
  GI50: > 100000 nM (inactive)
U-251
  GI50: > 100000 nM (inactive)
UACC-257
  GI50: > 100000 nM (inactive)
HCT-116
  GI50: > 100000 nM (inactive)
Malme-3M
  GI50: > 100000 nM (inactive)
SNB-75
  GI50: > 100000 nM (inactive)
SR
  GI50: > 100000 nM (inactive)
DLD-1
  GI50: > 100000 nM (inactive)
MOLT-4
  GI50: > 100000 nM (inactive)
UO-31
  GI50: > 100000 nM (inactive)
OVCAR-8
  GI50: > 100000 nM (inactive)
SF-295
  GI50: > 100000 nM (inactive)
A498
  GI50: > 100000 nM (inactive)
TK-10
  GI50: > 100000 nM (inactive)
NCI-H23
  GI50: > 100000 nM (inactive)
A549
  GI50: > 100000 nM (inactive)
COLO 205
  GI50: > 100000 nM (inactive)
786-0
  GI50: > 100000 nM (inactive)
SNB-19
  GI50: > 100000 nM (inactive)
HL-60
  GI50: > 100000 nM (inactive)
SF-539
  GI50: > 100000 nM (inactive)
CCRF-CEM
  GI50: > 100000 nM (inactive)
LXFL 529
  GI50: > 100000 nM (inactive)
KM-20L2
  GI50: > 100000 nM (inactive)
UACC-62
  GI50: > 100000 nM (inactive)
HT-29
  GI50: > 100000 nM (inactive)
SW-620
  GI50: > 100000 nM (inactive)
K562
  GI50: > 100000 nM (inactive)
SF-268
  GI50: > 100000 nM (inactive)
LOX IMVI
  GI50: > 100000 nM (inactive)
RXF 631
  GI50: > 100000 nM (inactive)
HCT-15
  GI50: > 100000 nM
CAKI-1
  GI50: > 10000 nM (inactive)
SNB-78
  GI50: > 100000 nM (inactive)

## CCCC(=O)N[C@H]1CCc2cc(OC)c(OC)c(OC)c2-c2ccc(SC)c(=O)cc21
OVCAR-5
  GI50: 278 nM (active)
ACHN
  GI50: < 10 nM (active)
KM12
  GI50: < 10 nM (active)
SK-MEL-28
  GI50: < 10 nM (active)
NCI-H460
  GI50: < 10 nM (active)
SK-MEL-5
  GI50: < 10 nM (active)
RXF 393
  GI50: 175 nM (active)
SK-OV-3
  GI50: 143 nM (active)
HOP-62
  GI50: < 10 nM (active)
SK-MEL-2
  GI50: < 10 nM (active)
MDA-N
  GI50: < 10 nM (active)
DMS-273
  GI50: < 10 nM (active)
M19-MEL
  GI50: < 10 nM (active)
NCI-H522
  GI50: < 10 nM (active)
DMS-114
  GI50: < 10 nM (active)
M14
  GI50: < 10 nM (active)
SN12C
  GI50: < 10 nM (active)
HOP-18
  GI50: > 35800 nM (inactive)
HCC 2998
  GI50: < 10 nM (active)
IGROV-1
  GI50: < 10 nM (active)
T47D
  GI50: > 100000 nM (inactive)
MDA-MB-435
  GI50: < 10 nM (active)
HOP-92
  GI50: < 10 nM (active)
U-251
  GI50: < 10 nM (active)
MDA-MB-231
  GI50: < 10 nM (active)
HCT-116
  GI50: < 10 nM (active)
Malme-3M
  GI50: < 10 nM (active)
SNB-75
  GI50: < 10 nM (active)
EKVX
  GI50: 51900 nM (inactive)
SR
  GI50: < 10 nM (active)
DLD-1
  GI50: < 10 nM (active)
MOLT-4
  GI50: < 10 nM (active)
UO-31
  GI50: 310 nM (active)
OVCAR-8
  GI50: < 10 nM (active)
SF-295
  GI50: < 10 nM (active)
A498
  GI50: < 10 nM (active)
NCI-H226
  GI50: < 46.5 nM (active)
TK-10
  GI50: < 41.1 nM (active)
OVCAR-3
  GI50: < 10 nM (active)
NCI-H23
  GI50: < 10 nM (active)
DU-145
  GI50: < 10 nM (active)
A549
  GI50: < 10 nM (active)
COLO 205
  GI50: < 10 nM (active)
NCI/ADR-RES
  GI50: 16 nM (active)
PC-3
  GI50: < 10 nM (active)
786-0
  GI50: < 10 nM (active)
SNB-19
  GI50: < 10 nM (active)
RPMI-8226
  GI50: 63.1 nM (active)
HL-60
  GI50: < 10 nM (active)
SF-539
  GI50: < 10 nM (active)
CCRF-CEM
  GI50: < 46.5 nM (active)
LXFL 529
  GI50: < 10 nM (active)
KM-20L2
  GI50: < 10 nM (active)
UACC-62
  GI50: < 10 nM (active)
HT-29
  GI50: < 10 nM (active)
MCF7
  GI50: < 10 nM (active)
OVCAR-4
  GI50: 17100 nM (inactive)
SW-620
  GI50: < 10 nM (active)
K562
  GI50: < 10 nM (active)
SF-268
  GI50: < 10 nM (active)
LOX IMVI
  GI50: < 10 nM (active)
RXF 631
  GI50: < 10 nM (active)
HCT-15
  GI50: 10.9 nM
CAKI-1
  GI50: < 10 nM (active)
BT-549
  GI50: < 10 nM (active)
Hs-578T
  GI50: < 10 nM (active)
SNB-78
  GI50: < 10 nM (active)
